The target in one assay is T1, EGFR (L858R T790M C797S) (Homo sapiens, UniProt P00533, C797S/L858R/T790M).
T1 construct: purchased SignalChem E10-122VG
Put plainly: Biochemical EGFR inhibition assay (Caliper mobility shift), EGFR LRTMCS. The following applies: LRTMCS (PH) IC50 (nM) @ 1 mM ATP (Num), EGFR LRTMCS mutant. An outline of the steps: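 Each enzyme was allowed to phosphorylate 10–20% of its peptide at 25° C. before EDTA (35 mM) quench. Separated substrate and product peaks were measured by mobility shift, giving apparent IC50 values.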

Assay [1] addresses T2, intracellular phosphorylation of EGFR in NCI-H1975 cell line that harbors the EGFR L858R T790M mutations (Homo sapiens, UniProt P00533, L858R/T790M).
T2 construct: NCI-H1975 cell line that harbors the EGFR L858R T790M mutations (ATCC, CRL-5908); host or cells: NCI-H1975
The assay can be described thus: NCI-H1975 pEGFR AlphaLISA assay. The class given is cell-based. Conditions: NCI-H1975 cells (EGFR L858R T790M), p-EGFR (Tyr1068), 4-5 hours incubation; read-out: Ext pEGFR H1975 GMean IC50 (nM) Protocol: @Pharmaron AlphaLISA (Num). The procedure: On the next day, the test compounds and DMSO control were added into H1975 cell plate followed by incubation at 37C/5% CO2 for 4-5 hours. […] Then 5 μL of a donor bead mix was added to each well followed by overnight incubation at room temperature in dark. On the next day, the plate was read at a compatible plate reader to obtain pEGFR signal. Percent of pEGFR inhibition was plotted against log concentration of compounds to generate IC50 values.

T2 sequence (P00533 25-1210 T790M/L858R): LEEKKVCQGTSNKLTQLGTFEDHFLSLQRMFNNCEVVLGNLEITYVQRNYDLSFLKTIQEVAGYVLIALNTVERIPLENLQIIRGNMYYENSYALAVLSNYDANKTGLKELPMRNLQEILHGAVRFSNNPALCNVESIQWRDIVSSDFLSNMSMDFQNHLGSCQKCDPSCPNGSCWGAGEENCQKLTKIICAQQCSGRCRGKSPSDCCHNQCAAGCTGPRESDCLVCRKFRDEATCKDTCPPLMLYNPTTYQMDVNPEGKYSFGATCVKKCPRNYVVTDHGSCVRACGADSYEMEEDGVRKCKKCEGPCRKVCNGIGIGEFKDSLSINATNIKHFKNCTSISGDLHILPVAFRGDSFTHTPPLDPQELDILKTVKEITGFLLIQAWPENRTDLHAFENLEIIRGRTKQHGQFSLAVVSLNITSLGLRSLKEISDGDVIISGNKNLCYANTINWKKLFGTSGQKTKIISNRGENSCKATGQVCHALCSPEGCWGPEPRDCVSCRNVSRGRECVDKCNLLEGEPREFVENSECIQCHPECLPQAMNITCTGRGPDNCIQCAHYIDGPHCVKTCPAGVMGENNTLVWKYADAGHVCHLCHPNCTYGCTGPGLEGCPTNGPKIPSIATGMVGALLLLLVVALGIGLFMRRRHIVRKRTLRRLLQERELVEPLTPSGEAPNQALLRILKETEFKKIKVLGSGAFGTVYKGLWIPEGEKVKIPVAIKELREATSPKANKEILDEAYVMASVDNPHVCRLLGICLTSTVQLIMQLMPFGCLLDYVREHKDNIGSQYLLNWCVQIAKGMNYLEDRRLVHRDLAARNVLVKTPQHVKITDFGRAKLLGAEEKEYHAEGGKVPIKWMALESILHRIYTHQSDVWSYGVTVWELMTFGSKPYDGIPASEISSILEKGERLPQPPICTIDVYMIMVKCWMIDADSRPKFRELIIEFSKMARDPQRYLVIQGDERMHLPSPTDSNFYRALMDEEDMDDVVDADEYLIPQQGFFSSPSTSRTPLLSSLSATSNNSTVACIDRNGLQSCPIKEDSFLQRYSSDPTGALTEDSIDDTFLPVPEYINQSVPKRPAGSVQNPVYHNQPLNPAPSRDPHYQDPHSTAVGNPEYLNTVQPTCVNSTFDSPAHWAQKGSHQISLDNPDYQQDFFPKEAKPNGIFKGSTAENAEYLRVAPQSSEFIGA
T1 sequence (P00533 25-1210 T790M/C797S/L858R): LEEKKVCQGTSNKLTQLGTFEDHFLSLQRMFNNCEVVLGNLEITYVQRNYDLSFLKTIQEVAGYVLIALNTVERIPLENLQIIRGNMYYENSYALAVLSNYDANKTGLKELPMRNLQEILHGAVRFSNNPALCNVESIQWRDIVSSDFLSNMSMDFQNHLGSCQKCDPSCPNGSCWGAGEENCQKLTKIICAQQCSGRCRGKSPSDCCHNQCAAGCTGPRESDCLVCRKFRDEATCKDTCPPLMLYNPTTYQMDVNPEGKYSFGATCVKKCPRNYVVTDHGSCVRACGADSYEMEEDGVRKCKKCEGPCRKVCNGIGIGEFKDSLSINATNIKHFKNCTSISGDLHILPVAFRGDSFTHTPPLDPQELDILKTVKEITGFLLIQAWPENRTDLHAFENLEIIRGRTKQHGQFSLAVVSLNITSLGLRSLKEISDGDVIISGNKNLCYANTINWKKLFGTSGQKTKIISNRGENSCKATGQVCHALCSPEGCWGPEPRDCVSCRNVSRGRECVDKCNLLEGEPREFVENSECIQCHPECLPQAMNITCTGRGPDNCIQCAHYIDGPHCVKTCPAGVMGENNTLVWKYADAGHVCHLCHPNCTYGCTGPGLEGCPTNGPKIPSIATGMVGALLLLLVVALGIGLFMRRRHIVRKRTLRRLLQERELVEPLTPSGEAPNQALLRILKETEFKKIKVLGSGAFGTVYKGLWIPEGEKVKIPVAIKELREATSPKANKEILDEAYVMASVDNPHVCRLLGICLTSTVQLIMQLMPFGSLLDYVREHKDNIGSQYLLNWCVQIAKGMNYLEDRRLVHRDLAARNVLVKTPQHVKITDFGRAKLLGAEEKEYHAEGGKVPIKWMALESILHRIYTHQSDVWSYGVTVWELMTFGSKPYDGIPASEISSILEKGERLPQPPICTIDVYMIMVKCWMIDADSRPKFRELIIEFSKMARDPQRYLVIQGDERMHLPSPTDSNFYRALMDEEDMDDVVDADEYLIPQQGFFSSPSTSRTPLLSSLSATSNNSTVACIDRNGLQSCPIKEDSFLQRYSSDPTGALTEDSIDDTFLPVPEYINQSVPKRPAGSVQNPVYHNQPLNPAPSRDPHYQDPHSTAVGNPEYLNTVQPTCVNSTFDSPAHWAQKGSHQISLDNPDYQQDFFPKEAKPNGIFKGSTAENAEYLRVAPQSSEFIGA

As for `CC(C)c1cnc(N2CC[C@H]2C)c2cnc(Nc3ccnc(N4CC[C@@H](OCCO)[C@@H](F)C4)n3)cc12` [Example 142, 2-(((3S,4R)-3-fluoro-1-(4-((5-isopropyl-8-((R)-2-methylazetidin-1-yl)-2,7-naphthyridin-3-yl)amino)pyrimidin-2-yl)piperidin-4-yl)oxy)ethan-1-ol], the values for the IC50 (at EGFR (L858R T790M C797S); in assay [1]) were under 15 nM and under 10 nM, respectively.
For `CC(C)c1cnc(N2C[C@H](O)[C@H]2C)c2cnc(Nc3ccnc(N4CC[C@H](O)[C@H](F)C4)n3)cc12` [Example 143, (3R,4S)-3-fluoro-1-(4-((8-((2R,3S)-3-hydroxy-2-methylazetidin-1-yl)-5-isopropyl-2,7-naphthyridin-3-yl)amino)pyrimidin-2-yl)piperidin-4-ol], the IC50 on EGFR (L858R T790M C797S) is under 15 nM; in assay [1] it was 10 to 20 nM.
In the case of `CC(C)c1cnc(N2C[C@H](n3ccnn3)[C@H]2C)c2cnc(Nc3ccnc(N4CC[C@@](C)(O)[C@@H](F)C4)n3)cc12` [Example 144, (3S,4R)-3-fluoro-1-(4-((5-isopropyl-8-((2R,3S)-2-methyl-3-(1H-1,2,3-triazol-1-yl)azetidin-1-yl)-2,7-naphthyridin-3-yl)amino)pyrimidin-2-yl)-4-methylpiperidin-4-ol], the IC50 was 15 to 20 nM on EGFR (L858R T790M C797S) and 30 to 50 nM in assay [1].
The matching figures for `CO[C@@H]1CCN(c2nccc(Nc3cc4c(C(C)C)cnc(N5CC(O)C5)c4cn3)n2)C[C@@H]1F` [Example 147, 1-(6-((2-((3S,4R)-3-fluoro-4-methoxypiperidin-1-yl)pyrimidin-4-yl)amino)-4-isopropyl-2,7-naphthyridin-1-yl)azetidin-3-ol]: under 15 nM and 20 to 30 nM.
In the case of `CO[C@@H]1CCN(c2nccc(Nc3cc4c(C(C)C)cnc(N5C[C@H](OCCO)[C@H]5C)c4cn3)n2)C[C@@H]1F` [Example 148, 2-(((2R,3S)-1-(6-((2-((3S,4R)-3-fluoro-4-methoxypiperidin-1-yl)pyrimidin-4-yl)amino)-4-isopropyl-2,7-naphthyridin-1-yl)-2-methylazetidin-3-yl)oxy)ethan-1-ol], the IC50 at EGFR (L858R T790M C797S) is under 15 nM; in assay [1] it was under 10 nM.
Turning to `CO[C@H]1CCN(c2nccc(Nc3cc4c(C(C)C)cnc(N5C[C@H](O)[C@H]5C)c4cn3)n2)C[C@H]1F` [Example 149, (2R,3S)-1-(6-((2-((3R,4S)-3-fluoro-4-methoxypiperidin-1-yl)pyrimidin-4-yl)amino)-4-isopropyl-2,7-naphthyridin-1-yl)-2-methylazetidin-3-ol], the IC50 was under 15 nM on EGFR (L858R T790M C797S) and 10 to 20 nM in assay [1].
Take `CO[C@@H]1CCN(c2nccc(Nc3cc4c(C(C)C)cnc(N5C[C@H](O)[C@H]5C)c4cn3)n2)C[C@@H]1F` [Example 150, (2R,3S)-1-(6-((2-((3S,4R)-3-fluoro-4-methoxypiperidin-1-yl)pyrimidin-4-yl)amino)-4-isopropyl-2,7-naphthyridin-1-yl)-2-methylazetidin-3-ol]: the IC50 on EGFR (L858R T790M C797S) was under 15 nM; in assay [1], under 10 nM.
For the molecule `CC(C)c1cnc(N2CCCC2)c2cnc(Nc3ccnc(N4CC[C@@H](O)[C@@H](F)C4)n3)cc12` [Example 151, (3S,4R)-3-fluoro-1-(4-((5-isopropyl-8-(pyrrolidin-1-yl)-2,7-naphthyridin-3-yl)amino)pyrimidin-2-yl)piperidin-4-ol], the IC50 on EGFR (L858R T790M C797S) lay within 20 to 30 nM; in assay [1], 30 to 50 nM.
With `CC(C)c1cnc(N2CCC2)c2cnc(Nc3ccnc(N4CC[C@@H](O)[C@@H](F)C4)n3)cc12` [Example 152, (3S,4R)-1-(4-((8-(azetidin-1-yl)-5-isopropyl-2,7-naphthyridin-3-yl)amino)pyrimidin-2-yl)-3-fluoropiperidin-4-ol], the IC50 at EGFR (L858R T790M C797S) is 15 to 20 nM; in assay [1] it was 30 to 50 nM.
Take `CC(C)Oc1cnc(N2CC[C@H]2C)c2cnc(Nc3ccnc(N4CC[C@@H](O)[C@@H](F)C4)n3)cc12` [Example 153, (3S,4R)-3-fluoro-1-(4-((5-isopropoxy-8-((R)-2-methylazetidin-1-yl)-2,7-naphthyridin-3-yl)amino)pyrimidin-2-yl)piperidin-4-ol]: the IC50 on EGFR (L858R T790M C797S) is 30 to 100 nM; in assay [1] it was over 50 nM.
